# Assay results taken from the SangsterLogP compilation.
# Columns and labels:
# [1] = method code SF, from DOI: 10.1002/jps.2600830714, PMID: 7965679
# [2] = method code SF-AS, from DOI: 10.1021/jm00197a006, PMID: 533877
# [3] = method code SF-AS, from DOI: 10.1016/0378-5173(82)90004-7; settings: pH 3.0
# [4] = method code SF, from DOI: 10.1080/09553008714551831, PMID: 3497891; settings: pH 7.4
# [5] = method code SF-AS, from DOI: 10.1002/ps.2780110406
# [6] = method code SF, from DOI: 10.1039/p29920000723
# [7] = not given; remark: listed apart in the source
# [8] = method code SF, from Dai, J-Y.; Han, S.; Wang, L. (2000). Prediction of partition properties of substituted benzaldehydes using different structural parameters. Zhongguo Huanjing Kexue (China Environmental Science), …
# [9] = not given; remark: listed apart in the source
# [10] = not given; remark: listed apart in the source
# [11] = not given; remark: listed apart in the source
# [12] = not given; remark: listed apart in the source
# [13] = method code SF, from DOI: 10.1016/0360-3016(89)90912-7, PMID: 2703384; settings: pH 7.4
# [14] = method code SF-GLC, from DOI: 10.1016/0166-445x(88)90052-5
# [15] = not given; remark: listed apart in the source
# [16] = method code SF, from DOI: 10.1034/j.1399-3011.2003.00037.x, PMID: 12492901; settings: pH 2.0
# [17] = method code SF, from DOI: 10.1016/0360-3016(92)90876-j, PMID: 1735696; settings: pH 7.4
# [18] = not given; remark: listed apart in the source
# [19] = not given; remark: listed apart in the source
# [20] = method code SF, from Kruglik, P.; Leschev, M.; Rakhman'ko, M.; Bubel, N.; Asratyan, V. (1991). Extraction of 1,2,4-triazole and its derivatives by organic solvents. 64(8)1721-1724.
# [21] = method code SF-AS, from DOI: 10.1246/bcsj.63.3542
# [22] = not given; remark: listed apart in the source
# [23] = not given; remark: listed apart in the source
# [24] = method code G-HPLC, from DOI: 10.6028/nbs.ir.81-2406
# [25] = not given; remark: listed apart in the source
# [26] = from Bazaco, J.; Coca, C. (1989). Relation between the partition coefficient (Log Pow) and capacity factor (Log k') derived from reversed-phase HPLC of a series of benzaldehyde derivatives. Ciencia e …
# [27] = method code SF-GLC, from DOI: 10.1080/03086648508073361
# [28] = not given; remark: listed apart in the source
# [29] = method code SF-AS, from DOI: 10.1111/j.1440-1681.1976.tb00621.x, PMID: 10116
# [30] = method code SF-GLC, from DOI: 10.1021/je00020a050
# [31] = not given; remark: listed apart in the source
# [32] = method code SF-AS, from DOI: 10.1248/cpb.40.925
# [33] = not given; remark: listed apart in the source
structure (smiles),measurement,setting,value
O=NN(CCCl)C(=O)NCC(=O)O,logP,[1],-1.25
Clc1ccc(-c2ccccc2)cc1Cl,logP,,5.11
Cc1nnc(/C=N/O)s1,logP,[2],0.78
CC1(C)C(=O)NC(=O)NC1=O,logD,[3],-0.44
Nc1ncc([N+](=O)[O-])s1,logD,[4],0.89
CCOP(=O)(NC(C)C)Oc1ccc(SC)c(C)c1 (configuration not stated),logP,[5],3.18
CCS(=O)(=O)NC(=O)CCc1ccccc1,logP,[6],1.67
CC(C(=O)O)c1ccc(C(=O)c2cccs2)cc1 (configuration not stated),logP,[7],2.83
O=Cc1ccc(Br)cc1,logP,[8],2.75
OCc1ccccc1F,logP,[9],1.3
CNC(=S)NCC(F)(F)C(F)(F)C(F)(F)F,logP,[6],2.39
ClCc1cccc(CCl)c1,logP,[10],2.72
On1nc2ccccc2n1,logP,[11],0.69
CC(C)=CCC1(C(C)C)C(=O)NC(=O)NC1=O,logD,[3],2.23
CCCCC1C(=O)N(c2ccccc2)N(c2ccc(O)cc2)C1=O (configuration not stated),logP,[12],3.04
COCC(F)Cn1cnc([N+](=O)[O-])c1 (configuration not stated),logD,[13],-0.04
OCC1CO1 (configuration not stated),logP,[14],-0.95
COCCO,logP,[15],-0.61
O=C(O)c1cc([N+](=O)[O-])cc([N+](=O)[O-])c1,logD,[16],1.75
CONC(=O)CCCn1ccnc1[N+](=O)[O-],logD,[17],-0.74
COc1ccccn1,logP,[18],1.23
O/N=C/c1cnns1,logP,[2],0.86
CSc1ccc(C=C2C(C)=C(CC(=O)O)c3cc(F)ccc32)cc1,logP,[12],4.76
NC(=S)Nc1cccc2ccccc12,logP,[19],1.66
CCCn1cnc([N+](=O)[O-])n1,logP,[20],0.22
CN(C)C(=O)c1ccccn1,logP,[21],-0.45
Cc1cc(=O)n(-c2ccc(Cl)cc2)cc1C(=O)O,logP,[22],4.1
O=C(O)c1ccc(I)cc1,logP,[7],3.13
Cc1ccc(Cl)cc1Cl,logP,[23],4.09
CC(=O)OCC1OC(OC(C)=O)C(NC(=O)C(C)NC(=O)N(CCCl)N=O)C(OC(C)=O)C1OC(C)=O (configuration not stated),logP,[1],0.71
COCC(O)Cn1ncc([N+](=O)[O-])n1 (configuration not stated),logD,[4],-0.1
NC(=O)c1ccccc1Cl,logP,[18],0.94
Cc1cc(C)c(O)c(C)c1,logP,[24],2.73
CCCn1ccc(=O)c(O)c1,logP,[25],-0.17
Cc1nsc(C=NO)n1,logP,[2],1.29
CN(O)C(=O)Cn1ccnc1[N+](=O)[O-],logD,[17],-0.74
O=Cc1ccc(F)cc1,logP,[26],1.54
CC(C)COCCO,logP,[15],0.75
CCN(CC)P(=O)(N(CC)CC)N1CCCC1,logP,[27],2.39
Oc1cc(Cl)c(Cl)c(Cl)c1O,logP,[23],3.56
CCOc1cc(C=O)ccc1O,logP,[26],1.58
CCCC(C)=O,logP,[28],0.95
CCC(Br)(CC)C(=O)NC(N)=O,logP,[29],1.54
COc1cc(Cl)c(Cl)c(Cl)c1OC,logP,[30],4.01
O=C(O)CNc1ccc([N+](=O)[O-])cc1[N+](=O)[O-],logD,[16],1.56
Oc1ccc(Cl)cc1Cl,logP,[31],3.12
COc1ccccc1C=O,logP,[26],1.72
COc1c(Cl)c(Cl)c(Cl)c(Cl)c1OC,logP,[30],4.86
CC(C)=CCC1(C(C)(C)C)C(=O)NC(=O)NC1=O,logD,[3],2.56
O=C(O)c1cc(C(F)(F)F)nc2ccccc12,logP,[22],3.14
N#CCCCCOC(=O)c1ccccc1,logP,[6],2.05
O=S1CCCC1,logP,[12],-0.96
Cc1c2ccccc2c(C)c2c1ccc1ccccc12,logP,[28],6.16
Nc1c(F)cc(F)cc1F,logP,[9],1.81
O=c1cc(-c2ccccc2)oc2ccc3ccccc3c12,logP,[19],4.94
Brc1ccsc1Br,logP,[19],3.53
CN(C)C(=O)c1cnccn1,logP,[21],-0.8
CN(C)P(=O)(N(C)C)N(C)C,logP,[27],0.09
CC(=O)OCC(=O)[C@H]1CC[C@H]2[C@@H]3CCC4=CC(=O)CC[C@]4(C)[C@H]3CC[C@]12C,logP,[11],3.08
c1ccc2cc3c(ccc4ccccc43)cc2c1,logP,[18],5.93
C=CCOCCO,logP,[15],-0.1
CC(C)n1ccc(=O)c(O)c1,logP,[25],-0.02
Clc1cc(Cl)c(Cl)c(Cl)c1,logP,[5],4.68
Nc1ccc(Cl)cc1Cl,logP,[10],2.64
CCc1cc(CC)c(OC)c(C(=O)O)c1OC,logP,[7],2.98
COc1cc2c(c(OC)c1OC)-c1ccc(O)c(=O)cc1[C@@H](NC(C)=O)CC2,logP,[11],1.03
Oc1ccccc1O,logP,[31],1.1
CC(C)Oc1ccc(C=O)cc1,logP,[8],2.3
COCC(O)Cn1cnc([N+](=O)[O-])n1 (configuration not stated),logD,[4],-0.47
OC1CCCCC1,logP,[28],1.36
Cc1c(C)c(C)c(C)c(C)c1C,logP,[24],4.61
COc1ccc(Cl)c(Cl)c1Cl,logP,[30],4.03
O=C(O)c1snc(Cl)c1Cl,logP,[22],1.44
BrCC1CO1 (configuration not stated),logP,[14],0.85
Cc1ccc(O)c(C)c1,logP,,2.48
Cn1ccc(=O)c(O)c1,logP,[25],-0.7
COC(=O)c1c[nH]c2ccccc12,logP,[32],2.57
O=[N+]([O-])c1nc[nH]n1,logP,[20],-0.41
CC(C)(C)C1CCC(O)CC1 (configuration not stated),logP,[33],3.09
OCc1ccc(Br)cc1,logP,[9],2.15
CCOc1ccc(C=O)cc1,logP,[8],2.09
O=[N+]([O-])c1cn(CC(F)CO)cn1 (configuration not stated),logD,[13],-0.8
O=C(CCCn1ccnc1[N+](=O)[O-])NO,logD,[17],-1.11
Fc1ccc(CCl)cc1,logP,[24],2.73
ClC(Cl)=C(Cl)C(Cl)=C(Cl)Cl,logP,[10],4.74
O=NN(CCCl)C(=O)N[C@@H](Cc1ccccc1)C(=O)O,logP,[1],-0.28
CC(C)(C)O,logP,,0.34
CCN(CC)P(=O)(N(C)C)N(C)C,logP,[27],0.66
O=[N+]([O-])c1nccn1CC(F)CO (configuration not stated),logD,[13],-0.38
COC(=O)c1cc2ccccc2o1,logP,[32],2.53
CCOP(=S)(OCC)Oc1cccc(F)n1,logP,[5],3.51
CCCCC(C)O (configuration not stated),logP,[33],1.76
CC(C)C(Br)C(=O)NC(N)=O (configuration not stated),logP,[29],1.14
COC(=O)c1ccc(Br)o1,logP,[32],1.84
CNc1cnccn1,logP,[21],0.56
CC(C)C(Cl)C(=O)NC(N)=O (configuration not stated),logP,[29],1
CC(=O)N[C@@H](Cc1c[nH]c2ccccc12)C(=O)O,logD,[16],0.57
Oc1c(O)c(Cl)c(Cl)c(Cl)c1Cl,logP,[23],4.12
CCCCC(O)CCC (configuration not stated),logP,[33],2.68
Cc1ccc(O)cc1,logP,[31],2.03
Cn1cnc([N+](=O)[O-])n1,logP,[20],-0.45
ClCC1CO1 (configuration not stated),logP,[14],0.45
